Here are results for 24 molecules from patent US5223539A, “N,N-Di-alkyl(phenoxy)benzamide derivatives” (G. D. Searle & Co., priority 1991, dated 1993).

One may read the IC50 as the concentration at which inhibition is half-maximal. As usually defined, the inhibition is the drop in the measured response relative to a control, in per cent.

Where only a bound is given, the exact number is not on record here.

Assay [1] deals with Human Platelet Membrane Receptors (PAF receptor) (Homo sapiens, UniProt P25105). The following applies: for inhibition at 50 µM: read-out: Percent Inhibition of 3H-PAF binding at 50 μM.
Sequence of Human Platelet Membrane Receptors (PAF receptor) (P25105 whole entry): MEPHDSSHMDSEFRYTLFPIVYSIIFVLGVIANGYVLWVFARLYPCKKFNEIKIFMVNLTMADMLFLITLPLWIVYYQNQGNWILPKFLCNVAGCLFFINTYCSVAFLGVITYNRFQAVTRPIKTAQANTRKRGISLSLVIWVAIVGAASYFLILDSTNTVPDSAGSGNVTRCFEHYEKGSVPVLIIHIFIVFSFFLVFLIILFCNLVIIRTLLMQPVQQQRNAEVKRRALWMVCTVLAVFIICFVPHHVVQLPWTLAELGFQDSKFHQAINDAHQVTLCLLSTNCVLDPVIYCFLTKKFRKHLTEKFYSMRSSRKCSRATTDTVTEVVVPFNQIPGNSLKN
Protocol: INHIBITION OF ^3 H-PAF BINDING TO HUMAN PLATELET MEMBRANE RECEPTORS
Ten units of in-dated human packed platelets, each containing 45-65 ml platelet rich-plasma, were purchased from a commercial blood bank. Disposable plasticware was used throughout for receptor preparation. The units were pooled and a 1 ml aliquot was removed for determination of platelet concentration, using a Coulter Counter. The remaining platelet rich plasma was dispensed into 50 ml conical tubes and centrifuged at room temperature for 15 minutes at 3000 RPM (2300×g). Plasma was decanted and the platelets were resuspended in 35 ml of buffer (10 mM Trizma 7.0, 2 mM EDTA (dipotassium salt), and 150 mM KCl) and transferred to fresh tubes, which were centrifuged again as above. The platelets were washed 3 times, avoiding contaminating erythrocytes at the bottom of the pellets. Pellets were consolidated at each step, and by the last wash with EDTA/KCl buffer, most of the erythrocytes were in 1 tube. The pellets were resuspended in buffer containing 10 mM Trizma 7.0 with 10 mM CaCl2. Following centrifugation, the buffer was decanted and the pellets were resuspended in the CaCl2 buffer, avoiding erythrocyte contamination by recovering less than 100% of the platelet pellets. The resuspended platelets were dispensed in 8-10 ml aliquots into Corex tubes and disrupted by three cycles of freezing (dry ice/ethanol) and thawing (24° C.). The tubes were centrifuged at 40,000 × g for 20 minutes at 4° C. Supernatants were decanted and each pellet was resuspended in 5-7 ml 10 mM Trizma 7.0. All resuspended pellets were pooled and aliquots of about 1200 ml were dispensed into 1.5 ml microfuge tubes and frozen at -70° C. Protein content was determined by a fluorescamine protein assay.
Assay Methods: Receptor Characterization--Each receptor preparation was evaluated to determine the number of receptor populations, the number of PAF receptor equivalents/mg protein and the dissociation constant (KD) for PAF binding This required 2-3 experiments in which the protein concentration was held constant and the ^3 H-PAF ligand concentration was varied from approximately 0.10-2.5 nM and the data was analyzed by Scatchard methodology. Total incubation volume was 250 ml for these procedures and incubations were conducted at 24° C. for 30 minutes. For further experimentation, total incubation volumes are 500 ml. Protein and ligand concentrations were adjusted to give 0.075 nM receptor equivalents in the presence of 0.75 nM ^3 H-PAF. Each receptor preparation was then used to determine the dose - response displacement relationship of unlabeled PAF and the PAF antagonist, triazolam.
Assay Methods: Routine Assay of Compounds--The compounds were weighed precisely and solubilized in quantities of DMSO such that a 5 ml aliquot in the incubate would deliver the desired compound concentration. Compounds tested for the first time in this assay were evaluated at a concentration of 50 mM in the incubation medium. […] Triazolam was always included in each screening assay as a compound inhibition control. […] Nonspecific binding control solution was made by drying to completion about 26.2 ml unlabeled PAF under a stream of argon. PAF was resolubilized in 1000 ml DMSO. When delivered in a 5 ml aliquot, the final concentration of 1 mM PAF in the incubate exceeded by 1000-fold the concentration of ^3 H-PAF.
All buffers containing proteins were made at room temperature on the day of assay. Assay buffer was prepared by adding 125 mg human albumin to 25 ml of stock buffer (10 mM Trizma 7.4 with 20 mM CaCl2). Rinse buffer was made by adding 20 grams bovine serum albumin to 1000 ml stock buffer. About 80 ml of rinse buffer was decanted into a small pyrex dish and used to soak 65 Whatman GF/C 2.5 cm glass filters. The remaining rinse buffer was poured into a repipet and placed into an ice bath along with the filters.
In assay [2] the test system is rabbit platelets. Put plainly: PAF-induced platelet aggregation. The following applies: Oryctolagus cuniculus, washed rabbit platelets, antagonist 60 sec before PAF, tracing height 60 sec after PAF. It counts as cell-based. On the procedure:
(§1) Washed, [^3 H]serotonin-labeled rabbit platelets were prepared as previously described in COX, C. P., J. LINDEN and S. I. SAID: VIP elevates platelet cyclic AMP (cAMP) levels and inhibits in vitro platelet activation induced by platelet- activating factor (PAF). Peptides 5:25-28, 1984, and maintained in an atmosphere of 5% CO2 at 37° C. until used in the bioassay. Aliquots of platelets (2.5×10^8 /ml) were incubated with either an antagonist of PAF or the appropriate vehicle for 60 sec prior to the addition of PAF (0.2 nM to 0.2 mM). Aggregation was continuously monitored on a strip-chart recorder and recorded as the height of the tracing at 60 sec after the addition of PAF. Secretion of [^3 H]serotonin was measured in a sample of the platelet suspension removed at 60 sec after the addition of PAF. The percent inhibition of aggregation and secretion was calculated by comparing antagonist-treated platelets with the appropriate vehicle-treated control platelets. Each combination of antagonist and PAF was repeated 12-15 times, using several different platelet preparations. IC50 values were determined by inspection of the dose-response curves.

For assay [3], the system named is rabbit platelets. The assay can be described thus: PAF-induced platelet secretion ([3H]serotonin). It counts as cell-based. The following applies: Oryctolagus cuniculus, washed [3H]serotonin-labeled rabbit platelets, antagonist 60 sec before PAF, sampled 60 sec after PAF. Here is the method: as §1

Regarding `COc1cc(Oc2ccc(C(=O)N(C(C)C)C3CCCCC3)cc2)cc(OC)c1OC` [Example 1, N-cyclohexyl-N-(1-methylethyl)-4-(3,4,5-trimethoxyphenoxy)benzamide], the IC50 in assay [1] is 133 nM; in the assay on rabbit platelets [2] (1 min), 10 to 100 nM; in the assay on rabbit platelets [3], 8.9 nM.
As to `COc1ccc(Oc2ccc(C(=O)N(C(C)C)C3CCCCC3)cc2)cc1` [Example 2, N-cyclohexyl-4-(4-methoxyphenoxy)-N-(1-methylethyl)benzamide], the 50% inhibitory concentration (IC50) in assay [1] is 22100 nM; in the assay with rabbit platelets [2] (1 min) it was 1000 to 10000 nM; in the assay on rabbit platelets [3] it was 1120 nM.
For the molecule `COc1cccc(Oc2ccc(C(=O)N(C(C)C)C3CCCCC3)cc2)c1` [Example 3, N-cyclohexyl-4-(3-methoxyphenoxy)-N-(1-methylethyl)benzamide], the IC50 was 10500 nM in assay [1], 1000 to 10000 nM with rabbit platelets [2] (1 min) and 750 nM in the assay on rabbit platelets [3].
`COc1cc(Oc2ccc(C(=O)N(C3CCCCC3)C3CCCC3)cc2)cc(OC)c1OC` [Example 4, N-cyclohexyl-N-cyclopentyl-4-(3,4,5-trimethoxyphenoxy)benzamide]: the IC50 was 508 nM in assay [1], 1000 to 10000 nM in the assay on rabbit platelets [2] (1 min) and 9.36 nM in the assay with rabbit platelets [3].
Taken in the same sequence, the figures for `COc1ccc(Oc2ccc(C(=O)N(C3CCCCC3)C3CCCC3)cc2)cc1OC` [Example 5, N-cyclohexyl-N-cyclopentyl-4-(3,4-dimethoxyphenoxy)benzamide] were 1500 nM, 1000 to 10000 nM and 4010 nM.
Regarding `COc1ccc(Oc2ccc(C(=O)N(C(C)C)C3CCCCC3)cc2)cc1OC` [Example 6, N-cyclohexyl-4-(3,4-dimethoxyphenoxy)-N-(1-methylethyl)benzamide], the IC50 is 2010 nM in assay [1], 100 to 1000 nM in the assay on rabbit platelets [2] (1 min) and 85.9 nM in the assay with rabbit platelets [3].
The matching figures for `COc1ccc(Oc2ccc(C(=O)N(C3CCCC3)C3CCCC3)cc2)cc1OC` [Example 7, N,N-dicyclopentyl-4-(3,4-dimethoxyphenoxy)benzamide]: 914 nM, 1000 to 10000 nM and 422 nM.
With `COc1ccc(C(O)c2ccc(C(=O)N(C(C)C)C3CCCCC3)cc2)cc1OC` (stereo not drawn) [Example 8, N-cyclohexyl-4-[(3,4-dimethoxyphenyl)hydroxymethyl]-N-(1-methylethyl)benzamide], the inhibition at 50 µM in assay [1] stood at 44%. For the same molecule, the IC50 was 10000 to 100000 nM in the assay on rabbit platelets [2] (1 min) and 2570 nM with rabbit platelets [3].
Take `COc1ccc(C(O)c2ccc(C(=O)N(C3CCCCC3)C3CCCC3)cc2)cc1OC` (stereo not drawn) [Example 9, N-cyclohexyl-N-cyclopentyl-4-[(3,4-dimethoxyphenyl)hydroxymethyl]benzamide]: the inhibition at 50 µM in assay [1] came out at 61.9%. The IC50 with rabbit platelets [2] (1 min) is 1000 to 10000 nM; in the assay with rabbit platelets [3], 1490 nM.
Consider `COc1ccc(C(O)c2ccc(C(=O)N(C3CCCC3)C3CCCC3)cc2)cc1OC` (stereo not drawn) [Example 10, N,N-dicyclopentyl-4-[(3,4-dimethoxyphenyl) hydroxymethyl]benzamide], for which, in assay [1], the inhibition at 50 µM is 47%. Also, the results for the IC50 with rabbit platelets [2] and in the assay with rabbit platelets [3] (1 min) were over 10000 nM and 1000 to 10000 nM, respectively.
On to `COc1ccc(Cc2ccc(C(=O)N(C3CCCC3)C3CCCC3)cc2)cc1OC` [Example 11, N,N-dicyclopentyl-4-[(3,4-dimethoxyphenyl)methyl]benzamide], for which the 50% inhibitory concentration (IC50) in assay [1] was 1480 nM; with rabbit platelets [2] (1 min), 1000 to 10000 nM; in the assay on rabbit platelets [3], 114 nM.
The matching figures for `COc1cc(OC)cc(Oc2ccc(C(=O)N(C(C)C)C3CCCCC3)cc2)c1` [Example 12, N-cyclohexyl-4-(3,5-dimethoxyphenoxy)-N-(1-methylethyl)benzamide]: 2710 nM, 1000 to 10000 nM and 142 nM.
For `COc1cc(Oc2ccc(C(=O)N(C3CCCCC3)C3CCCC3)cc2C)cc(OC)c1OC` [Example 13, N-cyclohexyl-N-cyclopentyl-3-methyl-4-(3,4,5-trimethoxyphenoxy)benzamide], the 50% inhibitory concentration (IC50) in assay [1] was 600 nM; in the assay with rabbit platelets [2], under 1000 nM; in the assay with rabbit platelets [3], 89.4 nM.
As to `COc1cc(C(O)c2ccc(C(=O)N(C(C)C)C3CCCCC3)cc2)cc(OC)c1OC` (stereo not drawn) [Example 14, N-cyclohexyl-4-[hydroxy(3,4,5-trimethoxyphenyl)methyl]-N-(1-methylethyl)benzamide], the inhibition at 50 µM in assay [1] stood at 49.2%. The IC50 was 100 to 1000 nM in the assay on rabbit platelets [2] (1 min) and 1810 nM in the assay with rabbit platelets [3].
Regarding `COc1cc(Cc2ccc(C(=O)N(C(C)C)C3CCCCC3)cc2)cc(OC)c1OC` [Example 15, N-cyclohexyl-N-(1-methylethyl)-4-[(3,4,5-trimethoxyphenyl)methyl]benzamide], the values for the half-inhibitory concentration (IC50) (in assay [1]; with rabbit platelets [2] (1 min); with rabbit platelets [3]) were 425 nM, 100 to 1000 nM and 26.6 nM, respectively.
As to `COc1cc(C(=O)c2ccc(C(=O)N(C(C)C)C3CCCCC3)cc2)cc(OC)c1OC` [Example 16, N-cyclohexyl-N-(1-methylethyl)-4-(3,4,5-trimethoxybenzoyl)benzamide], the IC50 was 100 to 1000 nM in the assay with rabbit platelets [2] (1 min) and 103 nM in the assay on rabbit platelets [3].
Regarding `COc1cc(OC)c(OC)cc1Cc1ccc(C(=O)N(C2CCCCC2)C2CCCC2)cc1` [Example 17, N-cyclohexyl-N-cyclopentyl-4-[(2,4,5-trimethoxyphenyl)methyl]benzamide], the IC50 in assay [1] was 3710 nM; with rabbit platelets [2] (1 min), 1000 to 10000 nM; with rabbit platelets [3] it was 632 nM.
Taken in the same sequence, the figures for `CC(C)N(C(=O)c1ccc(Oc2ccc3c(c2)OCO3)cc1)C1CCCCC1` [Example 18, N-cyclohexyl-4-(3,4-methylenedioxyphenoxy)-N-(1-methylethyl)benzamide] were 8160 nM, 1000 to 10000 nM and 1990 nM.
The molecule `COc1cc(C(=O)N(C(C)C)C2CCCCC2)ccc1Oc1cc(OC)c(OC)c(OC)c1` [Example 19, N-cyclohexyl-3-methoxy-N-(1-methylethyl)-4-(3,4,5-trimethoxyphenoxy)benzamide] gave a half-inhibitory concentration (IC50) in assay [1] of 995 nM.
Consider `COc1ccc(OCc2ccc(C(=O)N(C(C)C)C3CCCCC3)cc2OC)c(OC)c1` [Example 20, N-cyclohexyl-4-[(2,4-dimethoxyphenoxy)methyl]-3-methoxy-N-(1-methylethyl)benzamide], for which the inhibition at 50 µM in assay [1] came to 41%.
In assay [1], `COc1cccc(OCc2ccc(C(=O)N(C(C)C)C3CCCCC3)cc2OC)c1` [Example 21, N-cyclohexyl-3-methoxy-4-[(3-methoxyphenoxy)methyl]-N-(1-methylethyl)benzamide] had an IC50 of 11200 nM.
Consider `COc1cccc(OCc2ccc(C(=O)N(C)C3CCCCC3)cc2)c1` [Example 22, N-cyclohexyl-4-[(3-methoxyphenoxy)methyl]-N-methylbenzamide], for which the IC50 was 53200 nM in assay [1], 10000 to 100000 nM in the assay with rabbit platelets [2] (1 min) and over 10000 nM in the assay with rabbit platelets [3].
As for `COc1cc(OCc2ccc(C(=O)N(C)C3CCCCC3)cc2)cc(OC)c1OC` [Example 23, N-cyclohexyl-N-methyl-4-[(3,4,5-trimethoxyphenoxy)methyl]benzamide], the values for the IC50 (in assay [1]; in the assay on rabbit platelets [2] (1 min); in the assay on rabbit platelets [3] (1 min)) were over 50000 nM, 10000 to 100000 nM and 10000 to 100000 nM, respectively.
On to `Cc1nnc2n1-c1ccc(Cl)cc1C(c1ccccc1Cl)=NC2` [Triazolam, triazolam, reference compound], for which, in assay [1] (standard concentration of 50 mM (so in the source), 0.75 nM 3H-PAF), the “inhibition of 3H-PAF binding by triazolam control at standard concentration” value is “approximately 50%”.
